# Values quoted from earlier work in patent publication US20210356455A1, “SCREENING AGENTS CAPABLE OF INHIBITING PAIN AND/OR PRURITUS AND METHODS AND COMPOSITIONS FOR TREATING PAIN AND/OR PRURITUS USING SAID AGENTS” (President and Fellows of Harvard College, priority 2020, published 2021).
# How the values were obtained:
# [1] = target: T1, Mrgprd (MAS Related GPR Family Member D) (Homo sapiens, UniProt Q8TDS7); details: micromolar doses; cells expressing the receptor
# [2] = target: T1, Mrgprd (MAS Related GPR Family Member D); details: cells expressing the receptor
# [3] = target: T2, Mrgpra3 (Mas-related G-protein coupled receptor member A3) (Mus musculus, UniProt Q91WW3)
# T2 sequence (Q91WW3 1-302): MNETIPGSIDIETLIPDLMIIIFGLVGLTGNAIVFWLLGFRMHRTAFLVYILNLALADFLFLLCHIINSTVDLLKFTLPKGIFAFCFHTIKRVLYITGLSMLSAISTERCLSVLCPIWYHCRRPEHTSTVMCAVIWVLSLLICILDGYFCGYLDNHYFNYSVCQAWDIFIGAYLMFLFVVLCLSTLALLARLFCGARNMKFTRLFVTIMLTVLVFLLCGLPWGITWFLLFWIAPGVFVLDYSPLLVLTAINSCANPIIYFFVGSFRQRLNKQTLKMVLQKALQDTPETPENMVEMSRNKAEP
# [4] = target: Ntsr2 (Neurotensin Receptor 2) (Homo sapiens, UniProt O95665); details: binding and pharmacological studies
# Sequence of Ntsr2 (Neurotensin Receptor 2) (O95665 whole entry, species assumed): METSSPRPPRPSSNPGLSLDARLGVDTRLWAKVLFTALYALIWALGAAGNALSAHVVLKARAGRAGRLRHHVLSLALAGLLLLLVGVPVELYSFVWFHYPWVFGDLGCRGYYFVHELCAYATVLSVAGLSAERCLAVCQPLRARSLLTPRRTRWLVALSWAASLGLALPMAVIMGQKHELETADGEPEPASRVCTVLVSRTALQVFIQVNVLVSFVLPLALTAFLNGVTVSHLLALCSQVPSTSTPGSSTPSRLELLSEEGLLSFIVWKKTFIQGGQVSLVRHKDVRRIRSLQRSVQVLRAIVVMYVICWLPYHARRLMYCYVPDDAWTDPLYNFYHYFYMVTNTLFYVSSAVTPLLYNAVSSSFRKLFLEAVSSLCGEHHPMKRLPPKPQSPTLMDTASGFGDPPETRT
# T1 sequence (Q8TDS7 whole entry, species assumed): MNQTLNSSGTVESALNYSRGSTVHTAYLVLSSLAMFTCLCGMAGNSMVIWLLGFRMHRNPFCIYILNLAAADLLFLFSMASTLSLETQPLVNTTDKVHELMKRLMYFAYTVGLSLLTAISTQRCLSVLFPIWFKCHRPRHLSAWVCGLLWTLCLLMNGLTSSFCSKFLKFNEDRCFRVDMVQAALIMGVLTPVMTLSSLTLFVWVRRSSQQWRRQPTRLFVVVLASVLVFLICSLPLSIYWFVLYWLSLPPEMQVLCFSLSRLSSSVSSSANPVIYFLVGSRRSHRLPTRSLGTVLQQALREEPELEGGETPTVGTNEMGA
structure (smiles),measurement,setting,value
"NCCC(=O)O [Beta-alanine, beta-alanine]",Ca(2+) influx,[1],specifically evoked Ca(2+) influx
same,forskolin-stimulated cAMP production,[2],decreases forskolin-stimulated cAMP production
CCN(CC)CCCC(C)Nc1ccnc2cc(Cl)ccc12 (stereo not shown) [chloroquine],receptor activation,[3],Activated
C[C@@H]1CN([C@H]2CC[C@](C#N)(c3ccc(F)cc3)CC2)CC[C@]1(C(=O)O)c1ccccc1 [levocabastine],affinity for the receptor,[4],high affinity
